# Experimental data: patent US9975878B2, “Substituted triazine BMI-1 inhibitors” (PTC Therapeutics, Inc., priority 2013, dated 2018)
# Test system: Bmi-1 protein
# Assay: Sandwich ELISA Assay: Bmi-1 protein level in HT-1080 cells treated with test compounds
# Type: cell-based
# Description: Cell Seeding and Compound Treatment (Day 1):
# HT-1080 cells were seeded at 8000 cells/well (50 μL) in 96-well tissue culture plates. After the cells became adherent (3-4 hours), 2× diluted stocks of test compounds in 50 μL DMEM containing 1% DMSO (final DMSO concentration was 0.5%) were added and the plates were incubated at 37° C. under 5% CO2 for 40-48 hours.
# ELISA Plate First Antibody Preparation (Day 2):
# The First Antibody (Millipore Mouse, monoclonal to mouse Bmi-1, clone F6, catalog #05-637) diluted to 2 μg/mL in PBS was added (100 μL) to each well of a Nunc MaxiSorp 96-well ELISA plate. The plate was covered with a plate seal and allowed to stand overnight.
# Cell Lysate Preparation (Day 3):
# Fresh Lysis buffer (1×) was prepared on the day of the assay as follows: 1 mM EDTA, 150 mM NaCl, 0.5% Triton-X 100, 10 mM NaF, 20 mM B-Glycerophosphate, 1 mM DTT (in PBS, pH 7.2-7.4) and HALT protease inhibitor cocktail (1×) (Pierce #78410).
# Lysis Buffer (1×, 40 μL) was added to each well and the plate was shaken for 5-10 minutes on an orbital shaker to allow cell lysis, then diluent (1% BSA in PBS in 0.5% NP40) (100 μL) was added to each well.
# A standard curve was prepared at the following Bmi-1 concentrations: 8000, 4000, 2000, 1000, 500, 250, 125 and 0 pg/mL. The Bmi-1 Recombinant Protein Standard (Novus Biologicals PCGF4 Recombinant Protein (P01), catalog # H00000648-P01) used to prepare the standard curve was stored at −80° C. On first thaw, the Recombinant Protein Standard was diluted to 10 μg/μL in Blocking Buffer (1% BSA in PBS; BSA: Fisher Scientific Catalog #1600-100). Aliquots were taken and refrozen at −80° C. The aliquots may be kept at 4° C. and reused after first thaw, but only within 1-2 weeks. The Recombinant Protein Standard contains a GST-fusion tag that appears at approximately 70 Kda on Western Blot.
# The prepared ELISA plate was washed 3× with Wash Buffer (0.05% Tween-20 in PBS). The final wash was removed from the plate and the plate was blotted dry. Blocking Buffer (300 μL) (1% BSA in PBS) was added to each well. The plate was covered with a plate seal and incubated at room temperature for 1 hour. The blocked plate was washed 3× with Wash Buffer, then the final wash was removed and the plate was blotted dry. The previously prepared samples and standards were added (100 μL/well) and the plate was covered with a plate seal and incubated at 4° C. overnight.
# The prepared ELISA plate was removed from incubation and allowed to stand at room temperature for 30 minutes, then washed and blotted dry. The Second Antibody (Cell Signaling Rabbit anti-Bmi-1, Cat# 2830) diluted to 1:600 in Blocking Buffer was added (100 μL) to each well, except as needed for background control wells. The plate was covered with a plate seal and incubated for 1.5 hrs at room temperature.
# The ELISA plate was washed and blotted dry as previously described. The Third Antibody (Cell Signaling HRP conjugated anti-rabbit IgG (CellSignaling, Cat#:7074) diluted to 1:300 in Blocking Buffer was added (100 μL) to each well, except as needed for background control wells. The plate was incubated for 1 hr at room temperature.
# The plate was washed and blotted dry, then a previously prepared TMB substrate (TMB substrate kit, Pierce catalog #34021) (prepared by mixing kit reagents 1:1) (100 μL) was added per well. The plate was incubated for 20-30 minutes at room temperature in the dark, then Stop Solution (2 M sulfuric acid in water) (50 μL) was added per well. The plates were read at OD450 (experimental) and OD570 (reference).
row,SMILES,EC50
1,"Cc1cccc(Nc2nc(N)nc(-n3c(C)nc4ccccc43)n2)c1 [Cpd 149, 6-(2-methyl-1H-benzimidazol-1-yl)-N-(3-methylphenyl)-1,3,5-triazine-2,4-diamine]",100 to 3000 nM
2,"Nc1nc(Nc2ccc(C(F)(F)F)cc2)nc(-n2c(C3CC3)nc3ncc(F)cc32)n1 [Cpd 36, 6-(2-cyclopropyl-6-fluoro-1H-imidazo[4,5-b]pyridin-1-yl)-N-[4-(trifluoromethyl)phenyl]-1,3,5-triazine-2,4-diamine]",100 to 3000 nM
3,"Cc1nc2ccccc2n1-c1nc(NO)nc(Nc2ccc(C(F)(F)F)cc2)n1 [Cpd 13, N-hydroxy-6-(2-methyl-1H-benzimidazol-1-yl)-N′-[4-(trifluoromethyl)phenyl]-1,3,5-triazine-2,4-diamine]",100 to 3000 nM
4,"CCc1nc2ncc(F)cc2n1-c1nc(N)nc(Nc2ccc(OC(F)F)cc2)n1 [Cpd 79, N-[4-(difluoromethoxy)phenyl]-6-(2-ethyl-6-fluoro-1H-imidazo[4,5-b]pyridin-1-yl)-1,3,5-triazine-2,4-diamine]",10 to 100 nM
5,"Cc1nc2ccccc2n1-c1nc(N)nc(Nc2ccc3ocnc3c2)n1 [Cpd 15, N-(1,3-benzoxazol-5-yl)-6-(2-methyl-1H-benzimidazol-1-yl)-1,3,5-triazine-2,4-diamine]",100 to 3000 nM
6,"CCc1nc2cc(F)ccc2n1-c1nc(N)nc(Nc2ccc(OC(F)F)c(F)c2)n1 [Cpd 60, N-[4-(difluoromethoxy)-3-fluorophenyl]-6-(2-ethyl-5-fluoro-1H-benzimidazol-1-yl)-1,3,5-triazine-2,4-diamine]",10 to 100 nM
7,"Cc1nc2ccc(F)cc2n1-c1nc(N)nc(Nc2ccc(Br)cc2)n1 [Cpd 211, N-(4-bromophenyl)-6-(6-fluoro-2-methyl-1H-benzimidazol-1-yl)-1,3,5-triazine-2,4-diamine]",10 to 100 nM
8,"Cc1nc2ccccc2n1-c1nc(N)nc(Nc2ccc3occc3c2)n1 [Cpd 8, N-(1-benzofuran-5-yl)-6-(2-methyl-1H-benzimidazol-1-yl)-1,3,5-triazine-2,4-diamine]",10 to 100 nM
9,"Nc1nc(Nc2ccc(OC(F)F)cc2)nc(-n2c(C3CC3)nc3cc(F)c(F)cc32)n1 [Cpd 83, 6-(2-cyclopropyl-5,6-difluoro-1H-benzimidazol-1-yl)-N-[4-(difluoromethoxy)phenyl]-1,3,5-triazine-2,4-diamine]",10 to 100 nM
10,"CCc1nc2c(F)cc(F)cc2n1-c1nc(N)nc(Nc2ccc(C)cc2)n1 [Cpd 189, 6-(2-ethyl-4,6-difluoro-1H-benzimidazol-1-yl)-N-(4-methylphenyl)-1,3,5-triazine-2,4-diamine]",10 to 100 nM
11,"CCc1nc2ccc(F)cc2n1-c1nc(N)nc(Nc2ccc(OC(F)(F)F)cc2)n1 [Cpd 171, 6-(2-ethyl-6-fluoro-1H-benzimidazol-1-yl)-N-[4-(trifluoromethoxy)phenyl]-1,3,5-triazine-2,4-diamine]",100 to 3000 nM
12,"Cc1nc2ccccc2n1-c1nc(N)nc(Nc2ccc(C(C)C)cc2)n1 [Cpd 167, 6-(2-methyl-1H-benzimidazol-1-yl)-N-[4-(propan-2-yl)phenyl]-1,3,5-triazine-2,4-diamine]",100 to 3000 nM
13,"N#Cc1ccc(Nc2nc(N)nc(-n3c(C4CC4)nc4ccccc43)n2)cc1 [Cpd 158, 4-{[4-amino-6-(2-cyclopropyl-1H-benzimidazol-1-yl)-1,3,5-triazin-2-yl]amino}benzonitrile]",100 to 3000 nM
14,"COc1ccc(Nc2nc(N)nc(-n3c(C4CC4)nc4ccc(F)cc43)n2)cc1 [Cpd 176, 6-(2-cyclopropyl-6-fluoro-1H-benzimidazol-1-yl)-N-(4-methoxyphenyl)-1,3,5-triazine-2,4-diamine]",10 to 100 nM
15,"CCc1nc2ccccc2n1-c1nc(Nc2ccc(OC(F)F)cc2)c[n+]([O-])n1 [Cpd 140, N-[4-(difluoromethoxy)phenyl]-3-(2-ethyl-1H-benzimidazol-1-yl)-1,2,4-triazin-5-amine 1-oxide]",100 to 3000 nM
16,"Cc1nc2ncc(Br)cc2n1-c1nc(N)nc(Nc2ccc(OC(F)F)c(F)c2)n1 [Cpd 39, 6-(6-bromo-2-methyl-1H-imidazo[4,5-b]pyridin-1-yl)-N-[4-(difluoromethoxy)-3-fluorophenyl]-1,3,5-triazine-2,4-diamine]",10 to 100 nM
17,"FC(F)Oc1ccc(Nc2cnnc(-n3c(C4CC4)nc4ccccc43)n2)cc1 [Cpd 113, 3-(2-cyclopropyl-1H-benzimidazol-1-yl)-N-[4-(difluoromethoxy)phenyl]-1,2,4-triazin-5-amine]",10 to 100 nM
18,"Nc1nc(Nc2ccc(OC(F)F)nc2)nc(-n2c(CF)nc3ccccc32)n1 [Cpd 110, N-[6-(difluoromethoxy)pyridin-3-yl]-6-[2-(fluoromethyl)-1H-benzimidazol-1-yl]-1,3,5-triazine-2,4-diamine]",100 to 3000 nM
19,"Nc1nc(Nc2ccc(C(F)(F)F)cc2)nc(-c2c(C(F)(F)F)nc3ccccn23)n1 [Cpd 61, 6-[2-(trifluoromethyl)imidazo[1,2-a]pyridin-3-yl]-N-[4-(trifluoromethyl)phenyl]-1,3,5-triazine-2,4-diamine]",10 to 100 nM
20,"Nc1nc(Nc2ccc(OC(F)F)cc2)nc(-n2c(CO)nc3ccccc32)n1 [Cpd 120, [1-(4-amino-6-{[4-(difluoromethoxy)phenyl]amino}-1,3,5-triazin-2-yl)-1H-benzimidazol-2-yl]methanol]",100 to 3000 nM

# More lines, now with the values ahead:
row,EC50,SMILES
1,1 to 10 nM,"CCc1nc2ccccc2n1-c1cnnc(Nc2ccc(OC)cc2)n1 [Cpd 205, 5-(2-ethyl-1H-benzimidazol-1-yl)-N-(4-methoxyphenyl)-1,2,4-triazin-3-amine]"
2,10 to 100 nM,"Nc1nc(Nc2ccc(C(F)(F)F)cc2)nc(-n2c(C3CC3)nc3ccccc32)n1 [Cpd 42, 6-(2-cyclopropyl-1H-benzimidazol-1-yl)-N-[4-(trifluoromethyl)phenyl]-1,3,5-triazine-2,4-diamine]"
3,10 to 100 nM,"Cc1ccc(Nc2nc(N)nc(-n3c(C)nc4cc(F)c(F)cc43)n2)cc1 [Cpd 195, 6-(5,6-difluoro-2-methyl-1H-benzimidazol-1-yl)-N-(4-methylphenyl)-1,3,5-triazine-2,4-diamine]"
4,10 to 100 nM,"Cc1nc2ncc(Cl)cc2n1-c1nc(N)nc(Nc2ccc(OC(F)F)c(F)c2)n1 [Cpd 41, 6-(6-chloro-2-methyl-1H-imidazo[4,5-b]pyridin-1-yl)-N-[4-(difluoromethoxy)-3-fluorophenyl]-1,3,5-triazine-2,4-diamine]"
5,1 to 10 nM,"CCc1nc2c(F)cccc2n1-c1nc(N)nc(Nc2ccc(C)cc2)n1 [Cpd 213, 6-(2-ethyl-4-fluoro-1H-benzimidazol-1-yl)-N-(4-methylphenyl)-1,3,5-triazine-2,4-diamine]"
6,1 to 10 nM,"Cc1ccc(Nc2nc(N)nc(-n3c(C)nc4ccccc43)n2)cc1 [Cpd 148, 6-(2-methyl-1H-benzimidazol-1-yl)-N-(4-methylphenyl)-1,3,5-triazine-2,4-diamine]"
7,1 to 10 nM,"CCc1nc2ccccc2n1-c1nc(N)nc(Nc2ccc(C)cc2)n1 [Cpd 160, 6-(2-ethyl-1H-benzimidazol-1-yl)-N-(4-methylphenyl)-1,3,5-triazine-2,4-diamine]"
8,1 to 10 nM,"COc1ccc(Nc2nncc(-n3c(C)nc4ccccc43)n2)cc1 [Cpd 204, N-(4-methoxyphenyl)-5-(2-methyl-1H-benzimidazol-1-yl)-1,2,4-triazin-3-amine]"
9,1 to 10 nM,"COc1ccc(Nc2nc(N)nc(-n3c(C4CC4)nc4c(F)cccc43)n2)cc1 [Cpd 182, 6-(2-cyclopropyl-4-fluoro-1H-benzimidazol-1-yl)-N-(4-methoxyphenyl)-1,3,5-triazine-2,4-diamine]"
10,1 to 10 nM,"COc1ccc(Nc2cnnc(-n3c(C)nc4ccccc43)n2)cc1 [Cpd 144, N-(4-methoxyphenyl)-3-(2-methyl-1H-benzimidazol-1-yl)-1,2,4-triazin-5-amine]"
